From ChEMBL document CHEMBL4834484, “Identification of isoform/domain-selective fragments from the selection of DNA-encoded dynamic library” (Bioorg Med Chem, 2021) come the findings set out here.

pIC50, pKd, pKi: −log10 of the molar value.

For assay [1], the target named is T1, NAD-dependent protein deacylase sirtuin-5, mitochondrial (Homo sapiens, UniProt Q9NXA8). Description: Inhibition of human recombinant SIRT5 assessed as inhibition of substrate desuccinylation using Fluor de Lys-Succinyl green peptide as substrate in presence of NAD+ measured by fluorometric assay.
T1 sequence (Q9NXA8 whole entry): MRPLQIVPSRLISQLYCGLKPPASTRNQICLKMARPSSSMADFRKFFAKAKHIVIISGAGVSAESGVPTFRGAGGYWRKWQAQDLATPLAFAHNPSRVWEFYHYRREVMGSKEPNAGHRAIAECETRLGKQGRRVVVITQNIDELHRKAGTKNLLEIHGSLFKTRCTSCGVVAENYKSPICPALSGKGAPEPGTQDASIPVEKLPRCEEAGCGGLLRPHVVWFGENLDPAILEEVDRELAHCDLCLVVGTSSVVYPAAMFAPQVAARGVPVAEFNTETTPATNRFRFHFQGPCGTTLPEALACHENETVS
The target in assay [2] is T1, NAD-dependent protein deacylase sirtuin-5, mitochondrial. Description: Binding affinity to chip-immobilized recombinant human SIRT5 measured after 300 secs by surface plasmon resonance method. On the technique in general: SPR reads the build-up and loss of mass on a sensor chip optically.

A word on the pIC50: it is −log10 of the IC50, conventionally taken in molar units. Usually pKi stands for −log10 of the Ki, conventionally taken in molar units. What is called pKd is −log10 of the Kd, conventionally taken in molar units. For the compound `CN(CCCN1c2ccccc2CCc2ccccc21)C(=O)CCCCCNC(=O)C[C@@H](Cc1ccccc1)NC(=O)OC(C)(C)C`, in assay [1], the pIC50 was 3.74 and the pKi is 3.91. Moreover, the negative logarithm of the Kd (pKd) in assay [2] is 5.61.
